The results in this text go back to US11572399B2, “Long-acting GIP peptide analogues” (University of Copenhagen, priority 2017, dated 2023).

Values joined by “and” are separate entries in the source; they are usually repeats but may differ in a detail not shown here. Identical values can stand only once. Peptide text beside a SMILES is read from it. * marks the point of attachment. C16 diacid = O=C(O)CCCCCCCCCCCCCCC(=O)*

The target of series [1] is T1, human GIP receptor (Homo sapiens, UniProt P48546).
T1 construct: host or cells: COS-7, transient transfection (calcium phosphate), cDNA in pCMV-Script
T1 sequence (P48546 22-466): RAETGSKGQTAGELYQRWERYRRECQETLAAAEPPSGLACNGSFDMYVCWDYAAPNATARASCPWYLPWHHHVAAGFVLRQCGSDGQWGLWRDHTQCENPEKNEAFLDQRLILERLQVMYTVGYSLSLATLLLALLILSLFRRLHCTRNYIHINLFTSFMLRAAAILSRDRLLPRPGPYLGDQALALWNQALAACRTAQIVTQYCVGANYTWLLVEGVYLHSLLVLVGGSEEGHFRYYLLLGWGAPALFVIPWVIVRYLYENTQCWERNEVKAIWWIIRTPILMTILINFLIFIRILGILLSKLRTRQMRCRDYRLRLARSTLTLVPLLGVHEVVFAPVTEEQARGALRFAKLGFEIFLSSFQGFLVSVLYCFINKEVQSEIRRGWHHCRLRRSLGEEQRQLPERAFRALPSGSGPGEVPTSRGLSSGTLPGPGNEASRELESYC
Briefly: cAMP accumulation assay, antagonism of a GIP-mediated cAMP response (50-80% of max). Conditions: for Fold change of IC50 versus GIP(5-30)NH2: fold change of IC50 from GIP(5-30)NH2. The series is classed as cell-based. As to the method:
The day after, the cells were washed twice with Hepes buffered saline (HBS) buffer and incubated with HBS and 1 mM 3-isobutyl-1-methylxanthine (IBMX) for 30 min at 37° C. […] The HitHunter™ cAMP XS assay (DiscoveRx) was carried out according to the manufacturer's instructions.
(Changes in cAMP serve as a functional read-out for many G protein-coupled receptors.)

Series [2] has as its target T1, human GIP receptor. Kind of series: 125I-human GIP competition binding assay, in the presence and absence of 2% HSA.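 As to all read-outs here: nonspecific binding taken as radioligand bound to untransfected cells, IC50 obtained from nonlinear regression fits.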 The note with it: for Fold change HSA (2%)/Casein (0.1%): IC50 (plus HSA)/IC50 (minus HSA); for Binding (+/−HSA) Fold: fold change +HSA/−HSA; for Ki: absence of HSA.
In series [3] the target is T1, human GIP receptor. Kind of series: cAMP accumulation assay, agonism (ligand alone). In kind it is cell-based. Conditions: Table 1; for Emax: COS-7, intrinsic cAMP activity, COS-7 cells; for EC50: given as log EC50 (negative sign), read-out: cAMP agonism EC50 (log) (converted).
Where [4] appears, read: transiently transfected COS-7 cells, Table 1 and text, read-out: cAMP antagonism nM (IC50, antagonistic potency).
Setting [5] is: heterologous competition binding, transiently transfected COS-7 cells expressing the human GIP receptor, read-out: Binding.
[6] abbreviates: binding in 0.1% casein (absence of HSA), log value, read-out: logIC50 0.1% casein (converted).
Where [7] appears, read: binding in presence of 2% HSA, read-out: logIC50 2% HSA (converted).

As for `CC[C@H](C)[C@H](NC(=O)[C@H](CO)NC(=O)[C@H](Cc1ccc(O)cc1)NC(=O)[C@H](CC(=O)O)NC(=O)[C@H](CO)NC(=O)[C@@H](NC(=O)[C@H](Cc1ccccc1)NC(=O)[C@@H](N)[C@@H](C)O)[C@@H](C)CC)C(=O)N[C@@H](C)C(=O)N[C@@H](CCSC)C(=O)N[C@@H](CC(=O)O)C(=O)N[C@@H](CCCCN)C(=O)N[C@H](C(=O)N[C@@H](Cc1c[nH]cn1)C(=O)N[C@@H](CCC(N)=O)C(=O)N[C@@H](CCC(N)=O)C(=O)N[C@@H](CC(=O)O)C(=O)N[C@@H](Cc1ccccc1)C(=O)N[C@H](C(=O)N[C@@H](CC(N)=O)C(=O)N[C@@H](Cc1c[nH]c2ccccc12)C(=O)N[C@@H](CC(C)C)C(=O)N[C@@H](CCCCNC(=O)CCCCCCCCCCCCCCC(=O)O)C(=O)N[C@@H](C)C(=O)N[C@@H](CCC(N)=O)C(=O)N[C@@H](CCCCN)C(N)=O)C(C)C)[C@@H](C)CC` [AT187, [hGIP(5-30)NH2[L27K]-C16diacid/27]] (H-TFISDYSIAMDKIHQQDFVNWLK(C16 diacid)AQK-NH2; N-terminus assumed), the “Fold change of IC50 versus GIP(5-30)NH2” value in series [1] is on record as 67.6. In series [1] (setting [4]), the IC50 worked out at 2380 nM. Further, in series [2], the “Fold change HSA (2%)/Casein (0.1%)” value is reported as 4.7 and the “Binding (+/−HSA) Fold” value is on record as 18.2. Also, in series [2] (setting [5]), the IC50 came to 26500 nM. Further, in series [3], the Emax (usually the size of the effect at its maximum, as opposed to the concentration needed) stood at 25%; the half-maximal effective concentration (EC50) (usually the concentration needed to bring the measured effect to its halfway point) was 1000 nM and 2510 nM.

As to `CCCCCCCCCCCC(=O)NCCCC[C@H](NC(=O)[C@H](CC(=O)O)NC(=O)[C@H](CCSC)NC(=O)[C@H](C)NC(=O)[C@@H](NC(=O)[C@H](CO)NC(=O)[C@H](Cc1ccc(O)cc1)NC(=O)[C@H](CC(=O)O)NC(=O)[C@H](CO)NC(=O)[C@@H](NC(=O)[C@H](Cc1ccccc1)NC(=O)[C@@H](N)[C@@H](C)O)[C@@H](C)CC)[C@@H](C)CC)C(=O)N[C@H](C(=O)N[C@@H](Cc1c[nH]cn1)C(=O)N[C@@H](CCC(N)=O)C(=O)N[C@@H](CCC(N)=O)C(=O)N[C@@H](CC(=O)O)C(=O)N[C@@H](Cc1ccccc1)C(=O)N[C@H](C(=O)N[C@@H](CC(N)=O)C(=O)N[C@@H](Cc1c[nH]c2ccccc12)C(=O)N[C@@H](CC(C)C)C(=O)N[C@@H](CC(C)C)C(=O)N[C@@H](C)C(=O)N[C@@H](CCC(N)=O)C(=O)N[C@@H](CCCCN)C(N)=O)C(C)C)[C@@H](C)CC` [AT119, [hGIP(5-30)NH2—C12/16]], the IC50 in series [1] (setting [4]) was 26 nM; in series [2] (setting [6]), 398 nM. Moreover, in series [2], the “Fold change HSA (2%)/Casein (0.1%)” value is 7.2. Moreover, the Emax in series [3] amounted to 0%.

With `CC[C@H](C)[C@H](NC(=O)[C@H](CCCCNC(=O)CCCCCCCCCCCCCCC(=O)O)NC(=O)[C@H](Cc1ccc(O)cc1)NC(=O)[C@H](CC(=O)O)NC(=O)[C@H](CO)NC(=O)[C@@H](NC(=O)[C@H](Cc1ccccc1)NC(=O)[C@@H](N)[C@@H](C)O)[C@@H](C)CC)C(=O)N[C@@H](C)C(=O)N[C@@H](CCSC)C(=O)N[C@@H](CC(=O)O)C(=O)N[C@@H](CCCCN)C(=O)N[C@H](C(=O)N[C@@H](Cc1c[nH]cn1)C(=O)N[C@@H](CCC(N)=O)C(=O)N[C@@H](CCC(N)=O)C(=O)N[C@@H](CC(=O)O)C(=O)N[C@@H](Cc1ccccc1)C(=O)N[C@H](C(=O)N[C@@H](CC(N)=O)C(=O)N[C@@H](Cc1c[nH]c2ccccc12)C(=O)N[C@@H](CC(C)C)C(=O)N[C@@H](CC(C)C)C(=O)N[C@@H](C)C(=O)N[C@@H](CCC(N)=O)C(=O)N[C@@H](CCCCN)C(N)=O)C(C)C)[C@@H](C)CC` [AT173, [hGIP(5-30)NH2[S11K]-C16diacid/11]] (H-TFISDYK(C16 diacid)IAMDKIHQQDFVNWLLAQK-NH2; N-terminus assumed), in series [1], the “Ability to antagonize the GIP-mediated cAMP response (in words)” value is “highest antagonistic potencies” and the “Fold change of IC50 versus GIP(5-30)NH2” value is given as 0.3. Besides, the IC50 in series [1] (setting [4]) was 10 nM. In series [2], the “Fold change HSA (2%)/Casein (0.1%)” value turned out to be 7.4, the affinity corresponds to a Ki of 6 nM and the “Binding (+/−HSA) Fold” value was found to be 9.7. In addition, in series [2] (setting [6]), the IC50 is 7.94 nM. Also, the IC50 in series [2] (setting [5]) came to 8 nM. For the same molecule, in series [2] (presence vs absence of 2% HSA, proxy for albumin binding), the “Fold change in affinity, IC50 (plus HSA)/IC50 (minus HSA)” value came to 7.4 fold. Besides, the Emax in series [3] is 0%.

For `CC[C@H](C)[C@H](NC(=O)[C@H](CO)NC(=O)[C@H](Cc1ccc(O)cc1)NC(=O)[C@H](CC(=O)O)NC(=O)[C@H](CO)NC(=O)[C@@H](NC(=O)[C@H](Cc1ccccc1)NC(=O)[C@@H](N)[C@@H](C)O)[C@@H](C)CC)C(=O)N[C@@H](C)C(=O)N[C@@H](CCSC)C(=O)N[C@@H](CC(=O)O)C(=O)N[C@@H](CCCCN)C(=O)N[C@H](C(=O)N[C@@H](Cc1c[nH]cn1)C(=O)N[C@@H](CCC(N)=O)C(=O)N[C@@H](CCC(N)=O)C(=O)N[C@@H](CC(=O)O)C(=O)N[C@@H](Cc1ccccc1)C(=O)N[C@H](C(=O)N[C@@H](CC(N)=O)C(=O)N[C@@H](Cc1c[nH]c2ccccc12)C(=O)N[C@@H](CC(C)C)C(=O)N[C@@H](CC(C)C)C(=O)N[C@@H](C)C(=O)N[C@@H](CCCCNC(=O)CCCCCCCCCCCCCCC(=O)O)C(=O)N[C@@H](CCCCN)C(N)=O)C(C)C)[C@@H](C)CC` [AT189, [hGIP(5-30)NH2[Q29K]-C16diacid/29]] (H-TFISDYSIAMDKIHQQDFVNWLLAK(C16 diacid)K-NH2; N-terminus assumed), the “Fold change of IC50 versus GIP(5-30)NH2” value in series [1] is 3.0. For the same molecule, the IC50 in series [1] (setting [4]) worked out at 79 nM. Moreover, in series [2], the “Fold change HSA (2%)/Casein (0.1%)” value is reported as 3.2 and the “Binding (+/−HSA) Fold” value turned out to be 3.2. In addition, the IC50 in series [2] (heterologous competition binding, transiently transfected COS-7 cells expressing the human GIP receptor, log value of the nM column, read-out: Binding log (converted)) was 126 nM and 118 nM. For the same molecule, in series [3], the Emax was determined as 12%; the EC50 is 100 nM and 79.4 nM.

Turning to `CC[C@H](C)[C@H](NC(=O)[C@H](CO)NC(=O)[C@H](Cc1ccc(O)cc1)NC(=O)[C@H](CC(=O)O)NC(=O)[C@H](CO)NC(=O)[C@@H](NC(=O)[C@H](Cc1ccccc1)NC(=O)[C@@H](N)[C@@H](C)O)[C@@H](C)CC)C(=O)N[C@@H](C)C(=O)N[C@@H](CCCCNC(=O)CCCCCCCCCCCCCCC(=O)O)C(=O)N[C@@H](CC(=O)O)C(=O)N[C@@H](CCCCN)C(=O)N[C@H](C(=O)N[C@@H](Cc1c[nH]cn1)C(=O)N[C@@H](CCC(N)=O)C(=O)N[C@@H](CCC(N)=O)C(=O)N[C@@H](CC(=O)O)C(=O)N[C@@H](Cc1ccccc1)C(=O)N[C@H](C(=O)N[C@@H](CC(N)=O)C(=O)N[C@@H](Cc1c[nH]c2ccccc12)C(=O)N[C@@H](CC(C)C)C(=O)N[C@@H](CC(C)C)C(=O)N[C@@H](C)C(=O)N[C@@H](CCC(N)=O)C(=O)N[C@@H](CCCCN)C(N)=O)C(C)C)[C@@H](C)CC` [AT176, [hGIP(5-30)NH2[M14K]-C16diacid/14]] (H-TFISDYSIAK(C16 diacid)DKIHQQDFVNWLLAQK-NH2; N-terminus assumed), the IC50 is 105 nM in series [1] (antagonism of GIP-mediated cAMP response, COS-7 cells, read-out: cAMP accumulation IC50); 121 nM in series [1] (setting [4]); 126 nM in series [2] (setting [6]); 562 nM in series [2] (setting [7]); 114 nM in series [2] (setting [5]). Also, in series [1], the “Fold change of IC50 versus GIP(5-30)NH2” value was found to be 3.8. For the same molecule, the “Fold change HSA (2%)/Casein (0.1%)” value in series [2] is 4.9. In addition, the “Binding (+/−HSA) Fold” value in series [2] turned out to be 5.1. The molecule further gave an Emax in series [3] of 12%. For the same molecule, the EC50 in series [3] is 100 nM.

Turning to `CC[C@H](C)[C@H](NC(=O)[C@H](CO)NC(=O)[C@H](Cc1ccc(O)cc1)NC(=O)[C@H](CC(=O)O)NC(=O)[C@H](CO)NC(=O)[C@@H](NC(=O)[C@H](Cc1ccccc1)NC(=O)[C@@H](N)[C@@H](C)O)[C@@H](C)CC)C(=O)N[C@@H](C)C(=O)N[C@@H](CCSC)C(=O)N[C@@H](CC(=O)O)C(=O)N[C@@H](CCCCNC(=O)CCCCCCCCCCCCCCC(=O)O)C(=O)N[C@H](C(=O)N[C@@H](Cc1c[nH]cn1)C(=O)N[C@@H](CCC(N)=O)C(=O)N[C@@H](CCC(N)=O)C(=O)N[C@@H](CC(=O)O)C(=O)N[C@@H](Cc1ccccc1)C(=O)N[C@H](C(=O)N[C@@H](CC(N)=O)C(=O)N[C@@H](Cc1c[nH]c2ccccc12)C(=O)N[C@@H](CC(C)C)C(=O)N[C@@H](CC(C)C)C(=O)N[C@@H](C)C(=O)N[C@@H](CCC(N)=O)C(=O)N[C@@H](CCCCN)C(N)=O)C(C)C)[C@@H](C)CC` [AT140, [hGIP(5-30)NH2—C16diacid/16]], in series [1], the “Fold change of IC50 versus GIP(5-30)NH2” value is given as 7.4. For the same molecule, the IC50 in series [1] (setting [4]) is 205 nM; in series [2] (setting [6]), 2000 nM; in series [2] (setting [7]), 3280 nM; in series [2] (setting [5]) it was 2160 nM. In series [2], the “Fold change HSA (2%)/Casein (0.1%)” value came out at 1.5. Moreover, the Ki (usually a dissociation constant, usually derived from enzyme kinetics or from competition with a known ligand) in series [2] was 2160 nM. For the same molecule, the “Binding (+/−HSA) Fold” value in series [2] worked out at 1.5. This molecule gave a maximal response (Emax) in series [3] of 0%.
